SMILES strings stand for the structures.

For the compound `Oc1cccc2cccnc12` [8-hydroxyquinoline], the “solubility in aqueous solution” value was “generally insoluble or only poorly soluble”.

These data come from US20080039508A1, “Treatment Of Tumours” (AQ+PLC, priority 2004, published 2008).
